Test results reported in patent publication US20250042916A1 (ACONCAGUA BIO, INC., priority 2023, published 2025).

Assays:
Type in all cases: cell-based
[1] = target: Amylin Receptor (Homo sapiens, UniProt O60896+P30988); assay: Amylin Receptor cAMP stimulation, assay version (I or II) not marked; settings: values without footnote mark; assay I or II not stated
Procedure: To optimize functional activity directed toward Gas coupling, COS-7 cells were stably transfected with human calcitonin receptor (CTR) and RAMP3, simultaneously. 100× concentration of compound working solutions were prepared (Agilent Technologies Bravo) with 4-fold serial dilution in 384-well Echo LDV plate (Labcyte, Cat #LP-0200). 100 nL/well 100× concentration of compound working solutions were moved to 384-well white low volume plate (Greiner, Cat #784075) using Labcyte ECHO550. 1×10^5 cells/mL COS-7/CTR or COS-7/AMY3 (HD Biosciences) cell suspensions prepared with assay buffer [DPBS containing 0.5 mM IBMX (Sigma, Cat #15879) and 0.1% BSA (GENVIEW, Cat #FA016-100 g)], 10 μL cell suspensions were added to each well of previous generated assay plate which already contains 100 nL compound at 100× concentration using ThermoFisher Multidrop Combi (1000 cells/well). Seal the plate and incubate at 37° C. with 5% CO2 for 30 min.
(§1) After incubation, the cAMP assay signal was generated using cAMP Hi-range Kit (Cisbio). 5 μL cAMP-d2 working solution was added to each well, followed by 5 μL Anti-cAMP antibody-cryptate working solution which was added to each well using ThermoFisher Multidrop Combi. The samples were then incubated at room temperature for 1 hour protected from light. the fluorescence was read at 665 and 615 nm with Reader PerkinElmer EnVision.
(§2) To optimize functional activity directed toward Gas coupling, COS-7 cells were stably transfected with human calcitonin receptor (CTR) and RAMP3, simultaneously. 100× concentration of compound working solutions were prepared with 4-fold serial dilution in 384-well Echo LDV plate (Labcyte, Cat #LP-0200-BC). 200 nL/well 100× concentration of compound working solutions were moved to 384-well white microplate (Perkin Elmer, Cat #6007680) using Labcyte ECHO550. 1×10^5 cells/mL COS-7/AMY3 cell suspensions prepared with assay buffer [HBSS containing 20 mM HEPES (Gibco, Cat #15630-080), 0.5 mM IBMX (Sigma, Cat #15879) and 0.1% Casein (Sigma, Cat #C4765)], 20 μL cell suspensions were added to each well of previous generated assay plate which already contains 200 nL compound at 100× concentration using ThermoFisher Multidrop Combi (2000 cells/well). Seal the plate and incubate at 37° C. with 5% CO2 for 30 min.
as §1, with “cAMP dynamic 2 kit (Revvity, Cat #62AM4PEC). 10” for “cAMP Hi-range Kit (Cisbio). 5”, “by 10” for “by 5”, “using CERTUS FLEX LIQUID DISPENSER.” for “using ThermoFisher Multidrop Combi.”, “PerkinElmer EnVision 2105.” for “PerkinElmer EnVision.”

[2] = target: human calcitonin receptor (CTR) and RAMP3 (AMY3) in COS-7 cells (Homo sapiens, UniProt O60896+P30988); assay: Amylin Receptor cAMP Assay I; settings: values marked *: Amylin Receptor cAMP Assay I; COS-7/AMY3 cells; read-out: Amylin Receptor cAMP Stimulation Activity: EC50
Procedure, shortened: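 COS-7 cells stably co-expressing human CTR and RAMP3 (AMY3) were stimulated with serially diluted compounds (4-fold) in DPBS with 0.5 mM IBMX and 0.1% BSA for 30 min at 37 °C, 1000 cells/well. cAMP accumulation was measured by HTRF (cAMP-d2/anti-cAMP cryptate, 1 h RT) read at 665/615 nm.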

[3] = target: T1, human calcitonin receptor (CTR) in COS-7 cells (Homo sapiens, UniProt P30988); assay: Calcitonin Receptor (CTR) cAMP Assay; settings: COS7-human CTR Clone #2 cells; read-out: Calcitonin Receptor cAMP Stimulation Activity: EC50
T1 construct: expressed in transfected cells; host or cells: COS-7 (COS7-human CTR Clone #2)
T1 sequence (P30988 25-474): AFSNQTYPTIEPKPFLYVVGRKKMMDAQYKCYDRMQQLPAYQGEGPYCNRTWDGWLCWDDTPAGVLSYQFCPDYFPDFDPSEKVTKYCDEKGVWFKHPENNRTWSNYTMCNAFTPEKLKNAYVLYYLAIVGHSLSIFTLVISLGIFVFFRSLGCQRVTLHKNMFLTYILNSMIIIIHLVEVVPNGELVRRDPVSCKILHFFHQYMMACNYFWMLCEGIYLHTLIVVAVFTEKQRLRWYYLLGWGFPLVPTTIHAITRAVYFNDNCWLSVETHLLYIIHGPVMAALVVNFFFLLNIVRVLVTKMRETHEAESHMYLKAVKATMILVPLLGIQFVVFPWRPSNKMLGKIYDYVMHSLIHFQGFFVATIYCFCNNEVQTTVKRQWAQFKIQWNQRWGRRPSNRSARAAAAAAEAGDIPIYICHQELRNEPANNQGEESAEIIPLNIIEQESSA
Description: Calcitonin Receptor (CTR) cAMP Assay
The calcitonin receptor (CTR) belongs to the subfamily of GPCRs known as the secretin or ‘B’ family of GPCRs. Like other class B1 GPCRs, the CT receptor family is canonically coupled to Gs-mediated cAMP production, and measurement of cAMP accumulation has been the primary assay used to determine peptide selectivity and potency.
as §2, with “to create COS7-human CTR Clone #2 stable cell line.” for “and RAMP3, simultaneously.”, “COS7-human CTR Clone #2” for “COS-7/AMY3”
as §1, with “dynamic 2 kit (Revvity, Cat #62AM4PEC). 10” for “Hi-range Kit (Cisbio). 5”, “[…]” for “5 μL”, “CERTUS FLEX LIQUID DISPENSER.” for “ThermoFisher Multidrop Combi.”, “EnVision 2105.” for “EnVision.”

Chain of Amylin Receptor (O60896 24-148, one chain of several): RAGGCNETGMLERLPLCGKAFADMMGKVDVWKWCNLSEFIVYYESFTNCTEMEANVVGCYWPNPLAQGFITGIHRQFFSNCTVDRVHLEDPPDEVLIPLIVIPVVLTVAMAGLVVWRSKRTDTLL
Chain of human calcitonin receptor (CTR) and RAMP3 (AMY3) in COS-7 cells (O60896 24-148, one chain of several): as above

Cc1nnc(-c2c(CCc3ccc(F)cc3)nc(CC(C)C)c(C(N)=O)c2-c2cc3ccnc(NCc4cncc(F)c4)c3s2)o1 [Compound 206, 6-[2-(p-fluorophenyl)ethyl]-4-(7-{[(5-fluoro-3-pyridyl)methyl]amino}-1-thia-6-aza-2-indenyl)-2-isobutyl-5-(5-methyl-1,3,4-oxadiazol-2-yl)nicotinamide]
EC50 [1]: 41.5 nM

Cc1nnc(-c2c(CCc3ccc(F)cc3)nc(CC(C)C)c(C(N)=O)c2-c2ccc3c(c2)CCC3OCc2ccc(F)c(F)c2)o1 (centres unmarked) [Compound 142, 4-{1-[(3,4-difluorophenyl)methoxy]-5-indanyl}-6-[2-(p-fluorophenyl)ethyl]-2-isobutyl-5-(5-methyl-1,3,4-oxadiazol-2-yl)nicotinamide]
EC50 [2]: 94 nM | EC50 [3]: 8.8 nM

Cc1nnc(-c2c(CCc3ccc(F)cc3)nc(CC(C)C)c(C(N)=O)c2-c2ccc(C(=O)N[C@@H]3CCc4ccccc43)s2)o1 [Compound 106, N—[(R)-1-indanyl]-5-{5-carbamoyl-2-[2-(p-fluorophenyl)ethyl]-6-isobutyl-3-(5-methyl-1,3,4-oxadiazol-2-yl)-4-pyridyl}-2-thenamide]
EC50 [2]: 4.1 nM | EC50 [3]: 2.1 nM

Cc1nnc(-c2c(COc3ccc(F)cc3)nc(CC(C)C)c(C(N)=O)c2-c2ccc(C(=O)N[C@@H]3CCc4ccccc43)s2)o1 [Compound 210, N—[(R)-1-indanyl]-5-{3-carbamoyl-6-[(p-fluorophenoxy)methyl]-2-isobutyl-5-(5-methyl-1,3,4-oxadiazol-2-yl)-4-pyridyl}-2-thenamide]
EC50 [1]: 546 nM

CCc1nc(CC(C)C)c(C(N)=O)c(-c2cc3ccnc(N[C@@H]4CCc5cc(F)ccc54)c3s2)c1-c1nnc(C)o1 [Compound 188, (R)-6-ethyl-4-(7-((5-fluoro-2,3-dihydro-1H-inden-1-yl)amino)thieno[2,3-c]pyridin-2-yl)-2-isobutyl-5-(5-methyl-1,3,4-oxadiazol-2-yl)nicotinamide]
EC50 [2]: 36.6 nM | EC50 [3]: 8.1 nM

Cc1cnc(-c2c(CCC3CCOCC3)nc(CC(C)C)c(C(N)=O)c2-c2cc3ccnc(N[C@@H]4CCc5ncccc54)c3s2)o1 [Compound 207, 4-{7-[(R)-4-aza-1-indanylamino]-1-thia-6-aza-2-indenyl}-2-isobutyl-5-(5-methyl-1,3-oxazol-2-yl)-6-[2-(tetrahydro-2H-pyran-4-yl)ethyl]nicotinamide]
EC50 [1]: 64.3 nM

Cc1nnc(-c2c(CC34CC(C(F)F)(C3)C4)nc(CC(C)C)c(C(N)=O)c2-c2ccc(C(=O)NCc3ccc(F)c(F)c3)s2)o1 [Compound 203, 4-(5-((3,4-difluorobenzyl)carbamoyl)thiophen-2-yl)-6-((3-(difluoromethyl)bicyclo[1.1.1]pentan-1-yl)methyl)-2-isobutyl-5-(5-methyl-1,3,4-oxadiazol-2-yl)nicotinamide]
EC50 [2]: 939 nM | EC50 [3]: 65 nM

COc1cccc2c1CC[C@H]2NC(=O)c1ccc(-c2c(C(N)=O)c(CC(C)C)nc(CCc3ccc(F)cc3)c2-c2nnc(C)o2)s1 [Compound 122, (R)-6-(4-fluorophenethyl)-2-isobutyl-4-(5-((4-methoxy-2,3-dihydro-1H-inden-1-yl)carbamoyl)thiophen-2-yl)-5-(5-methyl-1,3,4-oxadiazol-2-yl)nicotinamide]
EC50 [2]: 0.8 nM | EC50 [3]: 0.73 nM

COC1CCCN(c2nccc3cc(-c4c(C(N)=O)c(CC(C)C)nc(CCc5ccc(F)cc5)c4-c4nnc(C)o4)sc23)C1 (centres unmarked) [Compound 135, 6-(4-fluorophenethyl)-2-isobutyl-4-(7-(3-methoxypiperidin-1-yl)thieno[2,3-c]pyridin-2-yl)-5-(5-methyl-1,3,4-oxadiazol-2-yl)nicotinamide]
EC50 [2]: > 1000 nM | EC50 [3]: 280 nM

Cc1nnc(-c2c(C34CC(C(F)F)(C3)C4)nc(CC(C)C)c(C(N)=O)c2-c2ccc(C(=O)NCc3ccc(F)c(F)c3)s2)o1 [Compound 190, 4-(5-((3,4-difluorobenzyl)carbamoyl)thiophen-2-yl)-6-(3-(difluoromethyl)bicyclo[1.1.1]pentan-1-yl)-2-isobutyl-5-(5-methyl-1,3,4-oxadiazol-2-yl)nicotinamide]
EC50 [2]: 4060 nM | EC50 [3]: 738 nM

Cc1nnc(-c2c(CCc3ccc(F)cc3)nc(CC(C)C)c(C(N)=O)c2-c2ccc(C(=O)NCc3ccc(F)c(F)c3)s2)o1 [Compound 107, N-(3,4-difluorophenyl)methyl-5-{5-carbamoyl-2-[2-(p-fluorophenyl)ethyl]-6-isobutyl-3-(5-methyl-1,3,4-oxadiazol-2-yl)-4-pyridyl}-2-thenamide]
EC50 [2]: 6.6 nM | EC50 [3]: 1.6 nM

Cc1nnc(-c2c(CCc3ccc(F)cc3)nc(CC(C)C)c(C(N)=O)c2-c2cc3ccnc(NCc4ccc(F)c(F)c4)c3s2)o1 [Compound 131, 4-(7-{[(3,4-difluorophenyl)methyl]amino}-1-thia-6-aza-2-indenyl)-6-[2-(p-fluorophenyl)ethyl]-2-isobutyl-5-(5-methyl-1,3,4-oxadiazol-2-yl)nicotinamide]
EC50 [2]: 4.4 nM | EC50 [3]: 0.33 nM

Cc1nnc(-c2c(CCc3ccc(F)cc3)nc(CC(C)C)c(C(N)=O)c2-c2ccc3c(c2)CCCN3CCc2ccc(F)c(F)c2)o1 [Compound 174, 4-(1-(3,4-difluorophenethyl)-1,2,3,4-tetrahydroquinolin-6-yl)-6-(4-fluorophenethyl)-2-isobutyl-5-(5-methyl-1,3,4-oxadiazol-2-yl)nicotinamide]
EC50 [2]: 107 nM | EC50 [3]: 5.7 nM
